Results published in US5157052A, “Method for inhibiting IgE production” (priority 1990, dated 1992).

Legend:
IgE [1] = assay: Serum IgE response induced by FF1-4D5 + H∂A1 anti-IgD antibodies (ELISA, Assay A / Assay F); format: in vivo, mouse (Balb/c female); settings: 20 μg days 3 and 4
Outline: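 Transient IgE response induced in female Balb/c mice (10–20 weeks) by a day-0 i.v. or s.c. injection of 100 μg each of anti-IgD FF1-4D5 and H.δA1. Serum IgE measured by sandwich ELISA (B1E3 capture, biotinylated R1E4 detection, avidin-biotin-HRP/ABTS), quantified against an IgE standard curve corrected for serum dilution.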

IgG3 = assay: Serum IgG3 in anti-IgD stimulated mice (two site sandwich ELISA, Assay D); format: in vivo, mouse (Balb/c female); settings: 20 μg days 3 and 4
IgE [2] = assay: ED50 for inhibition of IgE calculated from the examples; format: in vivo, mouse; settings: dose to achieve 50% inhibition of IgE
Protocol: From the data in the above examples, the effective dose of each prostaglandin to achieve 50% inhibition of IgE (ED50) was calculated.

[3] = Diarrheal effects in rats; settings: rat, in vivo, po
Protocol: Briefly, adult Charles River male rats weighing 210-230 g were individually housed and fasted with water available ad libitum for 24 hours prior to the test. The animals (N=6-12) received logarithmically graded prostaglandin doses orally. Immediately after administration, the animals were returned to their cages, and diarrhea, if any, was assessed on an all or none basis for 8 hours after drug treatment. The ED50 and relative potency values were calculated by the logistic method of Berkson.

In the case of `CCCCC(C)(O)C/C=C/[C@H]1[C@H](O)CC(=O)[C@@H]1C/C=C\C=CCC(=O)OC` (relative stereo) [(±) methyl 11α,16-dihydroxy-16-methyl-9-oxoprosta-3,5Z,13-trien-1-oate], the “de novo IgE synthesis” value (IgE [1]; Example 25) is reported as “inhibit de novo IgE synthesis”, the “IgE ± SD” value (IgE [1]; Table 14, day 8 (control 6071)) is reported as 1176 ± 137 ng/mL and the “inhibition of IgG3” value (IgG3; Example 25) is reported as “not IgG1, IgG2a, IgG3 and IgM”. For the same compound, the “IgG3 ± SD” value (IgG3; Table 14, day 8 (control 1538)) was 1709 ± 429 µg/mL, the “ED50 IgE Inhibition” value (IgE [2]) was 6.5 μg/mouse/TID and the TD50 at 8 h [3] was 0.57 mg/kg.
